The results in this text go back to patent US10376557B2, “Peptide fragments for inducing synthesis of extracellular matrix proteins” (HELIX BIOMEDIX, INC., priority 2006, dated 2019).

Ends that are not written are not given here.

The test system of this assay is Human dermal fibroblasts. The experiment in a line: SIRCOL collagen assay: soluble collagen released by dermal fibroblasts incubated with peptides. In kind it is cell-based. As to conditions: for Collagen (μg) / Collagen: * = may not be significant, detection limit 2.5 μg. As for the experimental part:
Several sequences identified in Examples 1 and 2 were synthesized using standard peptide chemistry and assayed for the stimulation of collagen from dermal fibroblasts. The synthesized peptides were amidated at the C-terminus, which rendered the tetrapeptides less susceptible to protease degradation and increased their solubility compared to the free acid forms. Human dermal fibroblasts were incubated in 96-well plates at 37° C. and 5% CO2 for 24 and 48 hours in 150 μL complete cell culture media (Cascade Biologics, Portland, Oreg.; Cat. No. M-106-500), supplemented with Low Serum Growth Supplement (Cascade Biologics, Portland, Oreg.; Cat. No. […] Each well was seeded with 10,000 cells. Following the incubation, 100-μL medium samples were recovered from each well and assayed for collagen production
The assays were performed by Tebu-bio Laboratories (France) using the SIRCOL™ Collagen Assay Kit (Biocolor Assays, UK) following the manufacturer's protocol. The SIRCOL™ Collagen Assay is a quantitative dye-binding method designed for the analysis of soluble collagens released into culture medium by mammalian cells during in vitro culture. The collagen of the tested samples binds to the anionic SIRCOL™ dye. The collagen-dye complexes precipitate out of solution and are pelleted by centrifugation. The recovered collagen-dye pellet was dissolved in an alkaline solution prior to absorbance measurements. Duplicate measurements were taken at the 24 and 48 hour times from two separate samples. The four measurements for each sample were averaged. The absorbance of reagent blanks, collagen standards, and samples were measured at 560 nm. The reagent blank absorbance was subtracted from the absorbance from each sample at 24 and 48 hours.
Two separate data sets were used to generate two collagen standard calibration curves. The first calibration curve was generated for purposes of calculating the quantity of collagen in samples H6 (combination of SEQ ID NOs:1-4), […] (SEQ ID NOs:1-8, respectively) and H15 (combination of SEQ ID NOs:5-8). The second calibration curve was generated for calculating the quantity of collagen in samples H16 (SEQ ID NO:9), H21-23 (SEQ ID NOs:10-12, respectively), H25-26 (SEQ ID NOs:13-14, respectively), or H29-30 (SEQ ID NOs:15-16, respectively), H32 (SEQ ID NO:17), H33 (combination of SEQ ID NOs:9-12), H34 (combination of SEQ ID NOs:11-14), H35 (combination of SEQ ID NOs:13-16), H36 (combination of SEQ ID NOs:1, 6, 5, 8), H37 (SEQ ID NO: 17) and H38 (SEQ ID NO:8) from the absorbance measurements was created by plotting the Abs560nm of the known collagen standards versus the respective concentrations of the collagen standards (in micrograms) each time a series of assays were performed. With respect to each data set, the same calibration curve was used for samples taken at the 24 and 48 hour times (Tables 2A and 2B). Accordingly, different standard curves were prepared immediately prior to performing each series of assays.
A linear regression was performed from plotting the Abs560nm values versus concentrations of the respective collagen standards using MICROSOFT EXCEL™. […] As the results were identical, only the 24-hour time period was used for the second series calibration curves. The formula of the line obtained on assay date 1 and assay date 2 of the second series of samples was y=0.0178x and y=0.0162x, respectively. The peptide LL-37 (SEQ ID NO:18) was used as a positive control as it has been widely reported to have an impact upon wound healing in man (Heilborn et al., The Cathelicidin Anti-Microbial Peptide LL-37 Is Involved In The Re-Epithelialization Of Human Skin Wounds And Is Lacking In Chronic Ulcer Epithelium, J. Invest. Dermato. 120:379-89 (2003). The assay detection limit defined by the manufacturer is 2.5 μg. […]

The mark [1] stands for this setting: 24 hours, peptide 50 μg/mL, second series.
The mark [2] stands for this setting: 48 hours, peptide 50 μg/mL, second series.
Setting [3] is: check mark = yes, peptide 50 μg/mL.
Where [4] appears, read: 24 hours, peptide 50 μg/mL, 100 μL medium sample.
Setting [5] is: 48 hours, peptide 50 μg/mL, 100 μL medium sample.
Setting [6] is: peptide 0.3 μg/mL (per Table 5).
Setting [7] is: 24 hours, peptide 0.3 μg/mL, second series.
Setting [8] is: 48 hours, peptide 0.3 μg/mL, second series.

Take PGTP (PGTP-NH2) [H23]: under “peptide 50 μg/mL (per Table 5)”, the “Released collagen (μg/mL) 24 h” value was determined as 1 µg/mL and the “Released collagen (μg/mL) 48 h” value amounted to 17 µg/mL. For the same substance, under setting [1], the “Average (A560 nm)” value amounted to 0.08, the “Average minus blank (A560 nm)” value amounted to 0.00 and the “Collagen (μg)” value is recorded as 0.1* μg. For the setting “[Peptide] 50 μg/mL”, the “Collagen produced (μg/mL) 24 hrs” value stood at 1 µg/mL and the “Collagen produced (μg/mL) 48 hrs” value worked out at 17 µg/mL. For the same substance, under setting [2], the “Average (A560 nm)” value is on record as 0.09, the “Average minus blank (A560 nm)” value is 0.03 and the “Collagen (μg)” value is on record as 1.7* μg. The “Increase in collagen release at 48 h v. 24 h” value (from here on “Increase in collagen release”) under setting [3] is recorded as “✓”.

For the substance PEGP (PEGP-NH2) [H7], under “peptide 50 μg/mL (per Table 5)”, the “Released collagen (μg/mL) 24 h” value worked out at 0 µg/mL and the “Released collagen (μg/mL) 48 h” value is 54 µg/mL. Where the note is “24 hours, peptide 50 μg/mL”, the “Average (A560 nm)” value came to 0.08 and the “Average minus blank (A560 nm)” value is 0.00. The “Collagen (μg)” value under setting [4] is given as 0.0* μg. Also, for the setting “[Peptide] 50 μg/mL”, the “Collagen produced (μg/mL) 24 hrs” value amounted to 0 µg/mL and the “Collagen produced (μg/mL) 48 hrs” value came out at 54 µg/mL. Further, under “48 hours, peptide 50 μg/mL”, the “Average (A560 nm)” value came to 0.19 and the “Average minus blank (A560 nm)” value came to 0.07. Besides, the “Collagen” value under setting [5] was 5.4 µg. Under setting [3], the “Increase in collagen release” value is given as “✓”.

For the substance GPPG (Synthetic Peptide H13), under “peptide 50 μg/mL (per Table 5)”, the “Released collagen (μg/mL) 24 h” value is 18 µg/mL and the “Released collagen (μg/mL) 48 h” value worked out at 2 µg/mL. Also, where the note is “24 hours, peptide 50 μg/mL”, the “Average (A560 nm)” value is given as 0.10 and the “Average minus blank (A560 nm)” value came to 0.02. Further, the “Collagen (μg)” value under setting [4] is 1.8* μg. Moreover, for the setting “[Peptide] 50 μg/mL”, the “Collagen produced (μg/mL) 24 hrs” value came to 18 µg/mL and the “Collagen produced (μg/mL) 48 hrs” value is 2 µg/mL. Besides, for the setting “48 hours, peptide 50 μg/mL”, the “Average (A560 nm)” value was 0.12 and the “Average minus blank (A560 nm)” value is 0.00. For the same substance, the “Collagen (μg)” value under setting [5] is recorded as 0.2* μg.

With GSPG (Synthetic Peptide H9), where the note is “peptide 50 μg/mL (per Table 5)”, the “Released collagen (μg/mL) 24 h” value turned out to be 35 µg/mL and the “Released collagen (μg/mL) 48 h” value stood at 0 µg/mL. Besides, under “24 hours, peptide 50 μg/mL”, the “Average (A560 nm)” value is on record as 0.13 and the “Average minus blank (A560 nm)” value came out at 0.05. Besides, the “Collagen” value under setting [4] is 3.5 µg. For the same substance, under “[Peptide] 50 μg/mL”, the “Collagen produced (μg/mL) 24 hrs” value is 35 µg/mL and the “Collagen produced (μg/mL) 48 hrs” value turned out to be 0 µg/mL. Also, under “48 hours, peptide 50 μg/mL”, the “Average (A560 nm)” value amounted to 0.09 and the “Average minus blank (A560 nm)” value is 0.00. The “Collagen (μg)” value under setting [5] is given as 0.0* μg. Under setting [3], the “Decrease in collagen release at 48 h v. 24 h” value (“Decrease in collagen release” below) is listed as “✓”.

Regarding PMGP (PMGP-NH2) [H25], under “peptide 50 μg/mL (per Table 5)”, the “Released collagen (μg/mL) 24 h” value amounted to 13 µg/mL and the “Released collagen (μg/mL) 48 h” value was 7 µg/mL. Under setting [1], the “Average (A560 nm)” value is 0.10, the “Average minus blank (A560 nm)” value stood at 0.02 and the “Collagen (μg)” value is 1.3* μg. Moreover, for the setting “[Peptide] 50 μg/mL”, the “Collagen produced (μg/mL) 24 hrs” value was 13 µg/mL and the “Collagen produced (μg/mL) 48 hrs” value was determined as 7 µg/mL. In addition, under setting [2], the “Average (A560 nm)” value is listed as 0.07, the “Average minus blank (A560 nm)” value is reported as 0.01 and the “Collagen (μg)” value is given as 0.7* μg. Moreover, the “Decrease in collagen release” value under setting [3] is “✓”.

On to PKGP (PKGP-NH2) [H21], for which, under “peptide 50 μg/mL (per Table 5)”, the “Released collagen (μg/mL) 24 h” value turned out to be 25 µg/mL and the “Released collagen (μg/mL) 48 h” value stood at 29 µg/mL. For the same substance, under setting [1], the “Average (A560 nm)” value was found to be 0.12, the “Average minus blank (A560 nm)” value is recorded as 0.04 and the “Collagen” value was 2.5 µg. Also, for the setting “[Peptide] 50 μg/mL”, the “Collagen produced (μg/mL) 24 hrs” value was 25 µg/mL and the “Collagen produced (μg/mL) 48 hrs” value stood at 29 µg/mL. Moreover, under setting [2], the “Average (A560 nm)” value was 0.11, the “Average minus blank (A560 nm)” value turned out to be 0.05 and the “Collagen” value came out at 2.9 µg. In addition, the “Significant release of collagen at 24 h and 48 h” value (check mark = yes, 25 μg/mL considered significant, peptide 50 μg/mL) is reported as “✓”.

As for PEKP (PEKP-NH2) [H16], under “peptide 50 μg/mL (per Table 5)”, the “Released collagen (μg/mL) 24 h” value is 31 µg/mL and the “Released collagen (μg/mL) 48 h” value worked out at 3 µg/mL. Also, under setting [1], the “Average (A560 nm)” value was 0.14, the “Average minus blank (A560 nm)” value amounted to 0.06 and the “Collagen” value is 3.1 µg. Also, where the note is “[Peptide] 50 μg/mL”, the “Collagen produced (μg/mL) 24 hrs” value worked out at 31 µg/mL and the “Collagen produced (μg/mL) 48 hrs” value stood at 3 µg/mL. Moreover, under setting [2], the “Average (A560 nm)” value is 0.06, the “Average minus blank (A560 nm)” value is 0.00 and the “Collagen (μg)” value is recorded as 0.3* μg. Moreover, the “Decrease in collagen release” value under setting [3] is “✓”.

On to GFPG (Synthetic Peptide H8), for which, for the setting “peptide 50 μg/mL (per Table 5)”, the “Released collagen (μg/mL) 24 h” value worked out at 15 µg/mL and the “Released collagen (μg/mL) 48 h” value was determined as 9 µg/mL. Moreover, for the setting “24 hours, peptide 50 μg/mL”, the “Average (A560 nm)” value was found to be 0.10 and the “Average minus blank (A560 nm)” value turned out to be 0.02. For the same substance, the “Collagen (μg)” value under setting [4] is reported as 1.5* μg. Also, where the note is “[Peptide] 50 μg/mL”, the “Collagen produced (μg/mL) 24 hrs” value came out at 15 µg/mL and the “Collagen produced (μg/mL) 48 hrs” value is 9 µg/mL. Besides, under “48 hours, peptide 50 μg/mL”, the “Average (A560 nm)” value is on record as 0.13 and the “Average minus blank (A560 nm)” value is given as 0.01. The “Collagen (μg)” value under setting [5] is listed as 0.9* μg.

Consider KTTKS [H32, reference compound], for which the “Released collagen (μg/mL) 24 h” value under setting [6] was determined as 11 µg/mL. In addition, the “Average (A560 nm)” value runs as follows: under setting [7], 0.10; under setting [1], 0.07; under setting [8], 0.10; under setting [2], 0.08. Moreover, the “Average minus blank (A560 nm)” value is 0.02 under setting [7], −0.01 under setting [1], 0.04 under setting [8] and 0.02 under setting [2]. Moreover, the “Collagen (μg)” value reads like this: under setting [7], 1.1* μg; under setting [1], −0.5* μg; under setting [8], 2.2* μg; under setting [2], 1.2* μg. Moreover, where the note is “[Peptide] 0.3 μg/mL”, the “Collagen produced (μg/mL) 24 hrs” value was 11 µg/mL. The “Released collagen (μg/mL) 48 h” value runs as follows: under setting [6], 22 µg/mL; (peptide 50 μg/mL (per Table 5)) 12 µg/mL. Besides, the “Collagen produced (μg/mL) 48 hrs” value was determined as 22 µg/mL ([Peptide] 0.3 μg/mL) and 12 µg/mL ([Peptide] 50 μg/mL). The “Increase in collagen release” value (check mark = yes, peptide 0.3 μg/mL) was “✓”.

Turning to GAGP (Synthetic Peptide H12), for the setting “peptide 50 μg/mL (per Table 5)”, the “Released collagen (μg/mL) 24 h” value was 2 µg/mL and the “Released collagen (μg/mL) 48 h” value was determined as 37 µg/mL. Besides, under “24 hours, peptide 50 μg/mL”, the “Average (A560 nm)” value is given as 0.08 and the “Average minus blank (A560 nm)” value was determined as 0.00. In addition, the “Collagen (μg)” value under setting [4] is recorded as 0.2* μg. For the same substance, for the setting “[Peptide] 50 μg/mL”, the “Collagen produced (μg/mL) 24 hrs” value stood at 2 µg/mL and the “Collagen produced (μg/mL) 48 hrs” value is 37 µg/mL. Further, under “48 hours”, the “collagen production at 48 hours (in words)” value is recorded as “good results”. Moreover, for the setting “48 hours, peptide 50 μg/mL”, the “Average (A560 nm)” value is on record as 0.17 and the “Average minus blank (A560 nm)” value was 0.05. The “Collagen” value under setting [5] stood at 3.7 µg. Further, the “Increase in collagen release” value under setting [3] is listed as “✓”.
